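Five concentrations, 48 hours, 96-well plates. Definition used: TGI = concentration required for complete inhibition of growth.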
Experiments:
Test in all cases: inhibition of tumour cell growth, NCI panel, 48 h
786-0 renal = tested on: 786-0 renal
A498 renal = tested on: A498 renal
A549 NSCLC = tested on: A549 NSCLC
ACHN renal = tested on: ACHN renal
BT-549 breast = tested on: BT-549 breast
CAKI-1 renal = tested on: CAKI-1 renal
CCRF-CEM leukemia = tested on: CCRF-CEM leukemia
COLO 205 colon = tested on: COLO 205 colon
DU-145 prostate = tested on: DU-145 prostate
EKVX NSCLC = tested on: EKVX NSCLC
HCC-2998 colon = tested on: HCC-2998 colon
HCT-15 colon = tested on: HCT-15 colon
HL-60(TB) leukemia = tested on: HL-60(TB) leukemia
HOP-92 NSCLC = tested on: HOP-92 NSCLC
HS 578T breast = tested on: HS 578T breast
HT29 colon = tested on: HT29 colon
IGROV1 ovarian = tested on: IGROV1 ovarian
K-562 leukemia = tested on: K-562 leukemia
KM12 colon = tested on: KM12 colon
LOX IMVI melanoma = tested on: LOX IMVI melanoma
M14 melanoma = tested on: M14 melanoma
MALME-3M melanoma = tested on: MALME-3M melanoma
MDA-MB-231 breast = tested on: MDA-MB-231 breast
MDA-MB-435 = tested on: MDA-MB-435
MDA-N = tested on: MDA-N
MOLT-4 leukemia = tested on: MOLT-4 leukemia
NCI-H226 lung = tested on: NCI-H226 lung
NCI-H23 lung = tested on: NCI-H23 lung
NCI-H460 lung = tested on: NCI-H460 lung
NCI-H522 lung = tested on: NCI-H522 lung
NCI/ADR-RES ovarian = tested on: NCI/ADR-RES ovarian
OVCAR-4 ovarian = tested on: OVCAR-4 ovarian
OVCAR-5 ovarian = tested on: OVCAR-5 ovarian
OVCAR-8 ovarian = tested on: OVCAR-8 ovarian
PC-3 prostate = tested on: PC-3 prostate
RPMI-8226 leukemia = tested on: RPMI-8226 leukemia
RXF 393 renal = tested on: RXF 393 renal
SF-268 CNS = tested on: SF-268 CNS
SF-295 CNS = tested on: SF-295 CNS
SF-539 CNS = tested on: SF-539 CNS
SK-MEL-2 melanoma = tested on: SK-MEL-2 melanoma
SK-MEL-5 melanoma = tested on: SK-MEL-5 melanoma
SK-OV-3 ovarian = tested on: SK-OV-3 ovarian
SN12C renal = tested on: SN12C renal
SNB-19 CNS = tested on: SNB-19 CNS
SNB-75 CNS = tested on: SNB-75 CNS
TK-10 renal = tested on: TK-10 renal
U251 CNS = tested on: U251 CNS
UACC-257 melanoma = tested on: UACC-257 melanoma
UACC-62 melanoma = tested on: UACC-62 melanoma
UO-31 renal = tested on: UO-31 renal
HCT-116 colon = tested on: HCT-116 colon
HOP-62 NSCLC = tested on: HOP-62 NSCLC
OVCAR-3 ovarian = tested on: OVCAR-3 ovarian
SK-MEL-28 melanoma = tested on: SK-MEL-28 melanoma
SW-620 colon = tested on: SW-620 colon

With `c1ccc2nc3[nH]c4ccccc4c3cc2c1` the TGI (786-0 renal) was 1.16 µM, the TGI (A498 renal) was 43.1 µM and the TGI (A549 NSCLC) was 9.14 µM. For the same compound, the TGI (ACHN renal) was 12.2 µM, the TGI (BT-549 breast) was 2.87 µM and the TGI (CAKI-1 renal) was 3.69 µM. For the same compound, the TGI (CCRF-CEM leukemia) was greater than 100 µM, the TGI (COLO 205 colon) was 1.53 µM and the TGI (DU-145 prostate) was 13.1 µM. It also gave a TGI (EKVX NSCLC) of 4.8 µM, a TGI (HCC-2998 colon) of 2.85 µM and a TGI (HCT-15 colon) of 1.38 µM. The TGI (HL-60(TB) leukemia) was 0.726 µM, the TGI (HOP-92 NSCLC) was 35.5 µM and the TGI (HS 578T breast) was 5.84 µM. For the same compound, the TGI (HT29 colon) was 1.75 µM, the TGI (IGROV1 ovarian) was 2.57 µM and the TGI (K-562 leukemia) was greater than 100 µM. The TGI (KM12 colon) was 1.81 µM, the TGI (LOX IMVI melanoma) was 1.16 µM and the TGI (M14 melanoma) was 1.85 µM. The TGI (MALME-3M melanoma) was 2.12 µM, the TGI (MDA-MB-231 breast) was 2.64 µM and the TGI (MDA-MB-435) was 1.97 µM. It also gave a TGI (MDA-N) of 2 µM, a TGI (MOLT-4 leukemia) of 1.36 µM and a TGI (NCI-H226 lung) of 18.3 µM. For the same compound, the TGI (NCI-H23 lung) was 1.81 µM, the TGI (NCI-H460 lung) was 1.46 µM and the TGI (NCI-H522 lung) was 1.52 µM. The TGI (NCI/ADR-RES ovarian) was 8.28 µM, the TGI (OVCAR-4 ovarian) was 2.79 µM and the TGI (OVCAR-5 ovarian) was 20.4 µM. For the same compound, the TGI (OVCAR-8 ovarian) was 2.35 µM, the TGI (PC-3 prostate) was 4.09 µM and the TGI (RPMI-8226 leukemia) was 2.53 µM. For the same compound, the TGI (RXF 393 renal) was 2.66 µM, the TGI (SF-268 CNS) was 7.3 µM and the TGI (SF-295 CNS) was 2.24 µM. The TGI (SF-539 CNS) was 1.23 µM, the TGI (SK-MEL-2 melanoma) was 16 µM and the TGI (SK-MEL-5 melanoma) was 2.01 µM. The TGI (SK-OV-3 ovarian) was 79.9 µM, the TGI (SN12C renal) was 3.34 µM and the TGI (SNB-19 CNS) was 4.43 µM. For the same compound, the TGI (SNB-75 CNS) was 6.44 µM, the TGI (TK-10 renal) was 10.7 µM and the TGI (U251 CNS) was 1.99 µM. It also gave a TGI (UACC-257 melanoma) of 2.47 µM, a TGI (UACC-62 melanoma) of 2.2 µM and a TGI (UO-31 renal) of 13.1 µM.
For `O=C(O)c1cc2ccccc2c(N=Nc2c([N+](=O)[O-])cc([N+](=O)[O-])cc2S(=O)(=O)O)c1O`, the TGI (786-0 renal) was greater than 100 µM, the TGI (A549 NSCLC) was greater than 100 µM and the TGI (ACHN renal) was greater than 100 µM. It also gave a TGI (BT-549 breast) greater than 100 µM, a TGI (CAKI-1 renal) greater than 100 µM and a TGI (CCRF-CEM leukemia) greater than 100 µM. It also gave a TGI (COLO 205 colon) greater than 100 µM, a TGI (EKVX NSCLC) greater than 100 µM and a TGI (HCT-116 colon) greater than 100 µM. For the same compound, the TGI (HCT-15 colon) was greater than 100 µM, the TGI (HOP-62 NSCLC) was greater than 100 µM and the TGI (HOP-92 NSCLC) was greater than 100 µM. It also gave a TGI (HS 578T breast) greater than 100 µM, a TGI (HT29 colon) greater than 100 µM and a TGI (IGROV1 ovarian) greater than 100 µM. For the same compound, the TGI (K-562 leukemia) was greater than 100 µM, the TGI (KM12 colon) was greater than 100 µM and the TGI (LOX IMVI melanoma) was greater than 100 µM. For the same compound, the TGI (M14 melanoma) was greater than 100 µM, the TGI (MALME-3M melanoma) was greater than 100 µM and the TGI (MDA-MB-231 breast) was greater than 100 µM. For the same compound, the TGI (MDA-MB-435) was greater than 100 µM, the TGI (MDA-N) was greater than 100 µM and the TGI (MOLT-4 leukemia) was greater than 100 µM. For the same compound, the TGI (NCI-H226 lung) was greater than 100 µM, the TGI (NCI-H23 lung) was greater than 100 µM and the TGI (NCI-H522 lung) was greater than 100 µM. It also gave a TGI (NCI/ADR-RES ovarian) greater than 100 µM, a TGI (OVCAR-3 ovarian) greater than 100 µM and a TGI (OVCAR-4 ovarian) greater than 100 µM. The TGI (OVCAR-5 ovarian) was greater than 100 µM, the TGI (OVCAR-8 ovarian) was greater than 100 µM and the TGI (PC-3 prostate) was greater than 100 µM. For the same compound, the TGI (RPMI-8226 leukemia) was greater than 100 µM, the TGI (RXF 393 renal) was greater than 100 µM and the TGI (SF-268 CNS) was greater than 100 µM. The TGI (SF-295 CNS) was greater than 100 µM, the TGI (SK-MEL-2 melanoma) was greater than 100 µM and the TGI (SK-MEL-28 melanoma) was greater than 100 µM. It also gave a TGI (SK-MEL-5 melanoma) greater than 100 µM, a TGI (SK-OV-3 ovarian) greater than 100 µM and a TGI (SN12C renal) greater than 100 µM. The TGI (SNB-19 CNS) was greater than 100 µM, the TGI (SNB-75 CNS) was greater than 100 µM and the TGI (SW-620 colon) was greater than 100 µM. The TGI (TK-10 renal) was greater than 100 µM, the TGI (U251 CNS) was greater than 100 µM and the TGI (UACC-257 melanoma) was greater than 100 µM. For the same compound, the TGI (UACC-62 melanoma) was greater than 100 µM and the TGI (UO-31 renal) was greater than 100 µM.
